Assay results from patent publication US10729770B2, “Bacterial influence on regulation of appetite via ClpB protein mimicry of alpha-MSH” (priority 2013, dated 2020).

What was measured:
α-MSH [1] = target: T1, α-MSH (Homo sapiens, UniProt P01189); experiment: ELISA of plasma auto-antibodies reacting with α-MSH; type: in vivo
T1 construct: endogenous peptide hormone of the melanocortin family, with a tridecapeptide structure; purchased Bachem AG
From the text: (§1) Each determination was done in duplicate.

[2] = ClpB immunization in mice: body weight, food intake and feeding pattern (BioDAQ cages); type: in vivo
Method: All experimental protocols were conducted according to US National Institutes of Health guidelines and EU directives, and animal experiments were approved by the Institutional Ethical Committees. Two-month-old male C57BI6 mice (Janvier Laboratories, L'Arbresle, France) were acclimated to the animal facility for 1 week with 12 h light-dark cycle, lights on at 0700 hours and were kept in standard mouse-holding cages (n=8) each. Mice were fed ad libitum with standard pelleted rodent chow (RM1 diet, SDS, UK) with drinking water always available and were manipulated daily by gentle holding and measuring body weight. During acclimatization, mice were distributed between four cages to obtain the similar mean body weight per mouse per cage. After 1 week of acclimatization, mice from each cage were assigned to one of four study group and received following treatments: (i) Group 1, ClpB immunization (n=8): ClpB protein (Delphi Genetics, Gosselies, Belgium) 50 μg per mouse in 200 μl of 1:1 (vol:vol) of PBS with Complete Freund's Adjuvant (Sigma, St Louis, Mo., USA), intraperitoneally (i.p.); (ii) Group 2, adjuvant injection controls (n=8): 200 μl of Complete Freund's Adjuvant in PBS (1:1 (vol:vol), i.p.); (iii) Group 3, PBS injection controls (n=8): 200 μl of PBS (i.p.); and (iv) Group 4, intact controls (n=8): received no injections, and then all mice were returned to their holding cages. Fifteen days later, mice were given a boost immunization and the following treatments: (i) Group 1 (n=8), ClpB protein (Delphi Genetics) 50 μg per mouse in 200 μl of 1:1 (vol:vol) of PBS with Incomplete Freund's Adjuvant (Sigma) i.p.; (ii) Group 2 (n=8): 200 μl of Incomplete Freund's Adjuvant in PBS (1:1 (vol:vol), i.p.); (iii) Group 3, (n=8): 200 μl of PBS (i.p.); and iv) Group 4, (n=8): received no injections. Next day after the boost, mice were placed individually into the BioDAQ mouse cages (Research Diets, Inc., New Brunswick, N.J., USA) each equipped with an automatic feeding monitor. Food (Serlab, Montataire France) and drinking water were available ad libitum and body weight was measured daily. After 3 days of acclimatization to the BioDAQ cages, mice received the following treatments: Groups 1, 2 and 3 (each n=8), that is, mice that have been immunized with ClpB, injected with adjuvants and with PBS, respectively, all received an acute injection of α-MSH peptide (Bachem AG), 100 μg·kg^−1 body weight in 100 μl of PBS (i.p.) at 1000 hours. The control mice (n=8) received PBS only (i.p.). Feeding data was continuously monitored and analyzed using the BioDAQ data viewer 2.3.07 (Research Diets). For the meal pattern analysis, the inter-meal interval was set at 300 s.

ClpB protein [3] = target: T2, ClpB protein (Escherichia coli, UniProt P63284); settings: ClpB-immunized mice
Method: (§2) IgG purification and affinity assay were performed according to a published protocol (Legrand et al., Protoc Exch 2014, doi:10.1038/protex2014.004). Extraction of plasma globulins was done by plasma acidification and separation on C18 SEP column (Phoenix Pharmaceuticals, Burlingame, Calif., USA), then 500 μl of mouse plasma was mixed with 500 μl of buffer A (1% trifluoroacetic acid in water). The column was activated in 1 ml of buffer B (60% acetonitrile in 1% trifluoroacetic acid) by 3 min centrifugation with 700 r.p.m. and rinsed three times with 3 ml of buffer A. Diluted plasma (1:1 in buffer A) was added to the column and the effluent (1 ml) was saved (frozen at −20° C.) for further purification of IgG. Total IgG were purified from the effluents of mouse plasma samples using the Melon Gel Kit (Thermo Fisher Scientific, Rockford, Ill., USA). Plasma effluents diluted 1:4 in kit's purification buffer was added on washed melon gel deposited in a column. Column was spun 1 min at 6000 r.p.m., and the IgG containing effluent was saved and frozen at −20° C. before lyophilization. […]
(§3) Between injections of each sample, the binding surface was regenerated with 10 mM NaOH, resulting in the same baseline level of the sensorgram. The affinity kinetic data were analyzed using BiaEvaluation 4.1.1 program (GE Healthcare). […]

ClpB protein [4] = target: T2, ClpB protein; settings: in vivo
Method: Plates were washed (5 min for three times) in PBS with 0.05% Tween 200, pH 7.4, and then incubated overnight at 4° C. with 100 μl of mouse plasma diluted 1:200 in PBS to determine free auto-Ab levels or diluted 1:200 in dissociative 3M NaCl and 1.5M glycine buffer, pH 8.9, to determine total auto-Ab levels. The plates were washed (three times) and incubated with 100 μl of alkaline phosphatase (AP)-conjugated goat antimouse IgG (1:2000) or anti-mouse IgM (1:1000), all obtained from Jackson ImmunoResearch Laboratories, Inc. (West Grove, Pa., USA). Following washing (three times), 100 μl of p-nitrophenyl phosphate solution (Sigma) was added as AP substrate. After 40 min of incubation at room temperature, the reaction was stopped by adding 3 N NaOH. The optical density was determined at 405 nm using a microplate reader Metertech 960 (Metertech Inc., Taipei, Taiwan). Blank optical density values resulting from the reading of plates without addition of plasma samples were subtracted from the sample optical density values. Each determination was done in duplicate.
IgG and IgM antibodies reactive with ClpB were detected by enzyme-linked immunosorbent assay using corresponding anti-mouse or anti-human AP-conjugated antibodies (Jackson ImmunoResearch Laboratories, Inc.) as described above.

[5] = target: T3, adrenocorticotropic hormone (Homo sapiens, UniProt P01189); experiment: ELISA of plasma IgG reacting with adrenocorticotropic hormone; type: in vivo; settings: ClpB immunization study
T3 construct: purchased Bachem AG
T3 sequence (P01189 138-176 limits assumed): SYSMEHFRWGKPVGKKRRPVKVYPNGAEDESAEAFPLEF
From the text: as §1

α-MSH [6] = target: T1, α-MSH; experiment: Affinity kinetics assay (surface plasmon resonance, BIAcore) of mouse IgG for α-MSH; type: binding; settings: ClpB-immunized mice compared with controls
Method: as §2, §3

[7] = Locomotor activity and anxiety tests (open field, elevated O-maze) in immunized mice; type: in vivo
Method: After the feeding study, mice were placed in individual mouse-holding cages with food and water available ad libitum, and were analyzed for locomotor activity and anxiety in 0-maze (Med Associate, Inc., St Albans, Vt., USA) tests performed during 2 consecutive days. Two hours after the 0-maze test, mice were killed by decapitation in a guillotine and trunk blood was collected into EDTA-containing tubes. Plasma was separated by centrifugation at 3500 r.p.m. ([…]) for 10 min at 4° C. and stored at −80° C. before assay.
After feeding study in the BioDAQ cages, mice were analyzed for locomotor activity using a Versamax Animal Activity Monitor (AccuScan Instruments, Inc., Columbus, Ohio, USA). Next day after the locomotor activity test, all mice were tested for their anxiety in an elevated O-maze. The elevated-O-maze is a variation of more commonly used elevated plusmaze pharmacologically validated for anxiety testing in rodents. The advantage of the O-maze is that it lacks the ambiguous central square of the traditional plus-maze. The O-maze consisted of a circular infrared platform (outer diameter 120 cm) elevated 80 cm above the floor, featuring two open and two closed segments made of gray plastic. The closed segments were enclosed by walls extending 20 cm above the surface of the maze and covered with a black infrared plexiglas lid. Each test started by placing the mouse into one of the two closed segments. The test lasted 5 min and was recorded using a video camera placed above the O-maze and the EthoVision video tracking software (Noldus IT, Wageningen, The Netherlands). Measurements of distance and time spent in the open and closed segments were analyzed. Between each mouse tests, the 0-maze was cleaned with 30% ethanol.

anti-α-MSH IgG = settings: 20 and 10 μg of ClpB
Method: Following 2D-PAGE, E. coli cytoplasmic proteins were transferred onto Hybond-ECL PVDF membrane (GE Healthcare) via a dry transfer method (Trans Blot Cell, Bio-Rad, USA) and a constant current of 0.8 mA.cm^−2 of the membrane size for 2 h. After transfer, membranes were blocked with 5% (wt:vol) milk (Regilait, France) in phosphate-buffered saline (PBS; 10 mmol·l^−1 […], and 150 mM·l^−1 NaCl) plus 0.05% (vol:vol) Tween 20.

[8] = ClpB-immunized mice, last 10 days
[9] = ClpB-immunized mice, α-MSH 100 μg/kg i.p.
[10] = open field, between study groups

T2 sequence (P63284 whole entry): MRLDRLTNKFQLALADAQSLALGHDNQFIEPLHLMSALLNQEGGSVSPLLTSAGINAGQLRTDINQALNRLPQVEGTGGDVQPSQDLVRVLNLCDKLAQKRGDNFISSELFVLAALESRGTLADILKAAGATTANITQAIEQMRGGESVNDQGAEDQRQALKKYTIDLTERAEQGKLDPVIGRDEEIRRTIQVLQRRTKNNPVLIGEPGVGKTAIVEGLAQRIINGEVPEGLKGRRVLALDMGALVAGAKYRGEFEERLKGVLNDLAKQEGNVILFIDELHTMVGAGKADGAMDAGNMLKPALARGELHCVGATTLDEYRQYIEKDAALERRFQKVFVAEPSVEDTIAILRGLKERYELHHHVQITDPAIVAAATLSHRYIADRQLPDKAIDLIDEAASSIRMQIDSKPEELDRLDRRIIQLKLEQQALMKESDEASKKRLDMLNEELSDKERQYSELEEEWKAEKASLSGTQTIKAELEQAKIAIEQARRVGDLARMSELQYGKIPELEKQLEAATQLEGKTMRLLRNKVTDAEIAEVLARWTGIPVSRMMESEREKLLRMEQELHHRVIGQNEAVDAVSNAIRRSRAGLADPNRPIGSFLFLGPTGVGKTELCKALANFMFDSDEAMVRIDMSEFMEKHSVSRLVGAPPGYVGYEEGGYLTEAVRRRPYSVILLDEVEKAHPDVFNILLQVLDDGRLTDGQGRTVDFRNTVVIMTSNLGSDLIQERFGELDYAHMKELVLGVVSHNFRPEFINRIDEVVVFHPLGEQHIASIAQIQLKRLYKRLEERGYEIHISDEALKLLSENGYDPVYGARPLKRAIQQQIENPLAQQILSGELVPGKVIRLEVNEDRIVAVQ

For “ClpB: chaperone protein ClpB from E. Coli K12, SEQ ID NO: 1, 857 amino acids; recombinant protein (Delphi Genetics) used for immunization”, the “plasma levels of α-MSH IgM auto-Abs” value (α-MSH [1]; ClpB immunization study, between the groups) was “did not significantly differ”, the “plasma levels of α-MSH-reactive IgG” value (α-MSH [1]; ClpB-immunized mice) was “Increased” and the “body weight for a few days after injections” value ([2]; ClpB 50 μg per mouse i.p. together with adjuvant, C57Bl6 mice) was “lower”. For the same substance, the “body weight vs controls” value ([2]; ClpB-immunized mice, 4 weeks later) was “+5%”, the meal number [2, 8] was “did not change” and the meal size [2, 8] was “increased”. For the same substance, the “mean daily food intake as compared with other groups” value ([2]; ClpB-immunized mice, last 10 days of the experiment) was “+13%”, the “24 h food intake following i.p. injection of α-MSH” value [2, 9] was “not affected” and the “body weight following i.p. injection of α-MSH” value [2, 9] was “not affected”. The “affinity of anti-ClpB IgG” value (ClpB protein [3]) was “lower affinities”, the “plasma anti-ClpB IgG levels” value (ClpB protein [4]) was “strong increase” and the “plasma levels of anti-ClpB IgG after adsorption with α-MSH” value (ClpB protein [4]) was “significantly reduced”. For the same substance, the “plasma adrenocorticotropic hormone-reactive IgG” value [5] was “No significant differences”, the “affinity of α-MSH-reactive IgG for α-MSH” value (α-MSH [6]) was “lower affinities” and the “time spent in the closed arms of the O-maze” value ([7]; ClpB-immunized mice compared with all other groups) was “less time”. The “distance moved in the closed arms of the O-maze” value ([7]; ClpB-immunized mice compared with controls) was “shorter distance”, the “time spent in the open vs border areas” value [7, 10] was “did not significantly differ” and the total locomotor activity [7, 10] was “did not significantly differ”. The “Western blot revealed with anti-α-MSH IgG” value (anti-α-MSH IgG) was “showed a 96-kDa band”.
